Measured values published in patent US20260216182A1, “PYRIDAZINE NLRP3 INHIBITOR COMPOUND, PHARMACEUTICAL COMPOSITION, AND PREPARATION METHOD THEREFOR AND USE THEREOF” (CHANGCHUN GENESCIENCE PHARMACEUTICAL CO., LTD., priority 2022, published 2026).

Target: T1, NLRP3 (Homo sapiens, UniProt Q96P20)
T1 construct: endogenous in cells; host or cells: THP-1 (human monocyte, PMA-differentiated, LPS-primed, nigericin-stimulated)
Test: IC50 of NLRP3 inhibitors in reducing IL-1β secretion by THP-1 cells (PMA, LPS, nigericin; ELISA)
Assay type: cell-based
Conditions: compound + nigericin 1 h
Experimental: Test Example 1 Experiment on Detection of IC50 of NLRP3 Inhibitors in Reducing the Level of IL-1β Secretion by THP-1 Cells
In this experiment, we use the human monocyte THP-1 to study the inhibitory activity of NLRP3 inhibitor on the secretion of IL-Iβ by cells. Human THP-1 cells are treated with crotonol-12-tetradecanoate-13-acetate (PMA) to differentiate into mature macrophage models. Then, according to the two stages of inflammasome formation in cells (assembly and activation), the cells are stimulated with lipopolysaccharide (LPS) and nigericin in turn, ultimately promoting the extracellular release of IL-1β by THP-1 cells. The first stage of inflammasome formation involves stimulating cells with LPS (lipopolysaccharide), an agonist of the Toll-like receptor TLR4, to activate the expression of the inflammasome-associated proteins NLRP3, caspase 1, and pro-IL-1β, a precursor of IL-1β. The second stage of inflammasome formation involves the addition of the potassium ion carrier nigericin, which causes a series of membrane potential changes in THP-1 cells, destroys the cell membrane structure, causes the efflux of cellular potassium ions, further stimulates the oligomerization of NLRP3 monomers to form NLRP3 oligomers, and begins to recruit ASC and pro-caspase-1 to assemble the NLRP3 inflammasome complex containing a large amount of pro-caspase-1. The pro-caspase-1 on the activated NLRP3 inflammasome is enzymatically self-activated to form a large amount of active caspase-1. The activated caspase-1 further enzymatically promotes the conversion of pro-IL-1β into mature IL-1β that can be secreted.
(1) Cell suspensions were collected. The cells were centrifuged at 1000 rpm for 4 min, the supernatant was discarded, the cells were resuspended with 1 mL of test medium, and then the cell culture medium was gently pipetted up and down with a pipette and its tip to break up the cell aggregates. After counting the cells, the THP-1 cells were resuspended with complete RPMI medium 1640 containing PMA and seeded into 96-well plates and cultured in a 37° C., 5% CO2 incubator for 72 h.
(2) The culture medium was taken out from each well with an automatic plate washer dispenser EL406 and each well was rinsed twice with PBS. To each well, 96 μL of RPMI 1640 medium containing LPS was added. The cells were cultured in a 37° C., 5% CO2 incubator for 4 h.
(3) To each well, 2 μL of the compound and 2 μL of nigericin sodium salt were added, and the final compound concentration selected was 5000 nM, 1000 nM, 200 nM, 40 nM, 8 nM, 1.6 nM, 0.32 nM, 0 nM, respectively. The cells were cultured in a 37° C., 5% CO2 incubator for 1 h.
(4) An appropriate amount of supernatant was taken out, diluted 100 times, and the content of IL-1β in the supernatant was detected using Human IL-1 beta Valukine ELISA kit.

T1 sequence (Q96P20 whole entry): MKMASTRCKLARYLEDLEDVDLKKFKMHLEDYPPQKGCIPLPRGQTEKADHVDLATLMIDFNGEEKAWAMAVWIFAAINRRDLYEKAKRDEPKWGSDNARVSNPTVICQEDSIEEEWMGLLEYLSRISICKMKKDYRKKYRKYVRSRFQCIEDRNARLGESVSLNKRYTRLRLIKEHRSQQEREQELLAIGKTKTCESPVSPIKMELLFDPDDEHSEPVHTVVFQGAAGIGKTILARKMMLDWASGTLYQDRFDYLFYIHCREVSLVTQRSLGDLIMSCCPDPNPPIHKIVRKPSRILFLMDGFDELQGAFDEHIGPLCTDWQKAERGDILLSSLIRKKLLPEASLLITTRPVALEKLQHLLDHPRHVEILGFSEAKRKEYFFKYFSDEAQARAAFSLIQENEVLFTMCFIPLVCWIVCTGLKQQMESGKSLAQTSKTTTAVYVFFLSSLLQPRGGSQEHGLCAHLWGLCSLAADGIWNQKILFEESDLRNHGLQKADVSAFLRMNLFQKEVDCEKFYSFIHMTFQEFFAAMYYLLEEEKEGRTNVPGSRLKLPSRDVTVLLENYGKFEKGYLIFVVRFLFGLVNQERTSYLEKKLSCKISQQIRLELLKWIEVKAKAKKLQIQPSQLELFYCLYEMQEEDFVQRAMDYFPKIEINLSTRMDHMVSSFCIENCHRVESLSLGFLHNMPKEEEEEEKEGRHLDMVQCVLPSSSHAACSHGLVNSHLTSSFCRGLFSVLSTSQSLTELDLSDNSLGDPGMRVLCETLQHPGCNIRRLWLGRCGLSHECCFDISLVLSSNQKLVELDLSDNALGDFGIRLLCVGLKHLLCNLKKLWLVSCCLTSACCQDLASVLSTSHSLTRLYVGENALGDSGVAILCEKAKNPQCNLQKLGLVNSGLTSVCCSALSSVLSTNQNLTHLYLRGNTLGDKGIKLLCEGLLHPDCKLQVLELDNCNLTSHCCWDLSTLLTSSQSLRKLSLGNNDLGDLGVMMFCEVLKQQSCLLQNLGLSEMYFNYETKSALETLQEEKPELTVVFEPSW

Compound	IC50
CC#Cc1ccc2c(-c3c(C)cc(Cl)cc3O)nnc(NC[C@@H](C)O)c2c1 (mixture of isomers) [Compound 035]	0.014 µM
CC(C(=O)NC1CC1)N1CCC[C@@H](Nc2nnc(-c3ccc(Cl)cc3O)c3ccncc23)C1 (mixture of isomers) [Compound 041, 2-((R)-3-((1-(4-chloro-2-hydroxyphenyl)pyrido[3,4-d]pyridazin-4-yl)amino)piperidin-1-yl)-N-cyclopropylpropionamide]	0.014 µM
CC(C)(O)CNc1nnc(-c2ccc(Cl)cc2O)c2ccc(C#N)cc12 [Compound 001, 1-(4-chloro-2-hydroxyphenyl)-4-((2-hydroxy-2-methylpropyl)amino) phthalazin-6-carbonitrile]	0.088 µM
Cn1cc(-c2ccc3c(-c4ccc(Cl)cc4O)nnc(NCC(C)(C)O)c3c2)cn1 [Compound 004, 5-chloro-2-(4-((2-hydroxy-2-methylpropyl)amino)-6-(1-methyl-1H-pyrazol-4-yl)phthalazin-1-yl)phenol]	0.063 µM
N#Cc1ccc2c(-c3ccc(Cl)cc3O)nnc(N[C@@H]3CCCN(C(=O)C4CC4)C3)c2c1 [Compound 005, (R)-1-(4-chloro-2-hydroxyphenyl)-4-((1-(cyclopropanecarbonyl)piperidin-3-yl)amino) phthalazin-6-carbonitrile]	0.037 µM
O=C(C1CC1)N1CCC[C@@H](Nc2nnc(-c3ccc(Cl)cc3O)c3ccncc23)C1 [Compound 006, (R)-(3-((1-(4-chloro-2-hydroxyphenyl)pyrido[3,4-d]pyridazin-4-yl)amino)piperidin-1-yl)(cyclopropyl)methanone]	0.012 µM
Cc1cc(C(F)(F)F)cc(O)c1-c1nnc(NCC(C)(C)O)c2cc(C#N)ccc12 [Compound 007, 4-((2-hydroxy-2-methylpropyl)amino)-1-(2-hydroxy-6-methyl-4-(trifluoromethyl)phenyl) phthalazin-6-carbonitrile]	0.029 µM
NC(=O)N1CCC[C@@H](Nc2nnc(-c3ccc(Cl)cc3O)c3ccncc23)C1 [Compound 008, (R)-3-((1-(4-chloro-2-hydroxyphenyl)pyrido[3,4-d]pyridazin-4-yl)amino)piperidin-1-formamide]	0.039 µM
NC(=O)CN1CCC[C@@H](Nc2nnc(-c3ccc(Cl)cc3O)c3ccncc23)C1 [Compound 009, (R)-2-(3-((1-(4-chloro-2-hydroxyphenyl)pyrido[3,4-d]pyridazin-4-yl)amino)piperidin-1-yl)acetamide]	0.028 µM
COC(=O)N1CCC[C@@H](Nc2nnc(-c3ccc(Cl)cc3O)c3ccncc23)C1 [Compound 010, Methyl (R)-3-((1-(4-chloro-2-hydroxyphenyl)pyrido[3,4-d]pyridazin-4-yl)amino)piperidin-1-carboxylate]	0.016 µM
C[C@@H](C(N)=O)N1CCC[C@@H](Nc2nnc(-c3ccc(Cl)cc3O)c3ccncc23)C1 [Compound 016, (S)-2-((R)-3-((1-(4-chloro-2-hydroxyphenyl)pyrido[3,4-d]pyridazin-4-yl)amino)piperidin-1-yl) propionamide]	0.011 µM
C[C@H](C(N)=O)N1CCC[C@@H](Nc2nnc(-c3ccc(Cl)cc3O)c3ccncc23)C1 [Compound 017, (R)-2-((R)-3-((1-(4-chloro-2-hydroxyphenyl)pyrido[3,4-d]pyridazin-4-yl)amino)piperidin-1-yl) propionamide]	0.017 µM
CC(C)(O)CNc1nnc(-c2ccc3sccc3c2O)c2ccc(C#N)cc12 [Compound 018, 4-((2-hydroxy-2-methylpropyl)amino)-1-(4-hydroxybenzo[b]thiophen-5-yl) phthalazine-6-carbonitrile]	0.05 µM
CC(C)(O)CNc1nnc(-c2ccc3sc(F)cc3c2O)c2ccc(C#N)cc12 [Compound 019, 1-(2-fluoro-4-hydroxybenzo[b]thiophen-5-yl)-4-((2-hydroxy-2-methylpropyl)amino) phthalazine-6-carbonitrile]	0.111 µM
CC#Cc1ccc2c(-c3c(C)cc(Cl)cc3O)nnc(NCC(C)(C)O)c2c1 [Compound 024, 5-chloro-2-(4-((2-hydroxy-2-methylpropyl)amino)-6-(1-propyn-1-yl)phthalazin-1-yl)-3-methylphenol]	0.019 µM
CC#Cc1ccc2c(-c3c(C)cc(Cl)cc3O)nnc(NCC(C)(C)O)c2c1 [Compound 024-1]	0.108 µM
Cc1cc(Cl)cc(O)c1-c1nnc(NCC(C)(C)O)c2cc(-n3cccn3)ccc12 [Compound 026, 5-chloro-2-(4-((2-hydroxy-2-methylpropyl)amino)-6-(1H-pyrazol-1-yl)phthalazin-1-yl)-3-methylphenol]	0.035 µM
Cc1cc(Cl)cc(O)c1-c1nnc(NCC(C)(C)O)c2cc(-n3nccn3)ccc12 [Compound 028, 5-chloro-2-(4-((2-hydroxy-2-methylpropyl)amino)-6-(2H-1,2,3-triazol-2-yl)phthalazin-1-yl)-3-methylphenol]	0.035 µM
CC#Cc1ccc2c(-c3ccc(Cl)cc3O)nnc(NCC(C)(C)O)c2c1 [Compound 036, 5-chloro-2-(4-((2-hydroxy-2-methylpropyl)amino)-6-(prop-1-yn-1-yl)phthalazin-1-yl)phenol]	0.051 µM
Cc1cc(Cl)cc(O)c1-c1nnc(NCC(C)(C)O)c2cc(-c3cnn(C)c3)ccc12 [Compound 038]	0.042 µM
Cc1cc(Cl)cc(O)c1-c1nnc(NCC(C)(C)O)c2cc(-c3cnn(C4CC4)c3)ccc12 [Compound 039, 5-chloro-2-(6-(1-cyclopropyl-1H-pyrazol-4-yl)-4-((2-hydroxy-2-methylpropyl)amino)phthalazin-1-yl)-3-methylphenol]	0.073 µM
Cc1cc(Cl)cc(O)c1-c1nnc(NCC(C)(C)O)c2cc(-c3ccn(C)n3)ccc12 [Compound 040, 5-chloro-2-(4-((2-hydroxy-2-methylpropyl)amino)-6-(1-methyl-1H-pyrazol-3-yl)phthalazin-1-yl)-3-methylphenol]	0.054 µM
CC(C(=O)N1CCCC1)N1CCC[C@@H](Nc2nnc(-c3ccc(Cl)cc3O)c3ccncc23)C1 (stereo partly drawn) [Compound 042]	0.014 µM
CC(C)(C(=O)NC1CC1)N1CCC[C@@H](Nc2nnc(-c3ccc(Cl)cc3O)c3ccncc23)C1 [Compound 043, (R)-2-(3-((1-(4-chloro-2-hydroxyphenyl)pyrido[3,4-d]pyridazin-4-yl)amino)piperidin-1-yl)-N-cyclopropyl-2-methylpropionamide]	0.034 µM
CCn1cc(-c2ccc3c(-c4c(C)cc(Cl)cc4O)nnc(NCC(C)(C)O)c3c2)cn1 [Compound 051, 5-chloro-2-(6-(1-ethyl-1H-pyrazol-4-yl)-4-((2-hydroxy-2-methylpropyl)amino)phthalazin-1-yl)-3-methylphenol]	0.046 µM
CC#Cc1ccc2c(-c3ccc(C(F)(F)F)cc3O)nnc(NC[C@H](O)CO)c2c1 [Compound 056, (S)-3-((4-(2-hydroxy-4-(trifluoromethyl)phenyl)-7-(prop-1-yn-1-yl)phthalazin-1-yl)amino) propan-1,2-diol]	0.018 µM
Cc1cc(Cl)cc(O)c1-c1nnc(NCC(C)(C)O)c2cc(-n3ccnn3)ccc12 [Compound 058, 5-chloro-2-(4-((2-hydroxy-2-methylpropyl)amino)-6-(1H-1,2,3-triazol-1-yl)phthalazin-1-yl)-3-methylphenol]	0.158 µM
CC#Cc1ccc2c(-c3ccc(C(F)(F)F)cc3O)nnc(N[C@@H]3CCCC[C@H]3O)c2c1 [Compound 061, 2-(4-(((1R,2R)-2-hydroxycyclohexyl)amino)-6-(prop-1-yn-1-yl)phthalazin-1-yl)-5-(trifluoromethyl)phenol]	0.023 µM
CC#Cc1ccc2c(-c3ccc(C(F)(F)F)cc3O)nnc(N[C@H]3C[C@@](C)(O)C3)c2c1 [Compound 065, 2-(4-(((1S, 3S)-3-hydroxy-3-methylcyclobutyl)amino)-6-(prop-1-yn-1-yl)phthalazin-1-yl)-5-(trifluoromethyl)phenol]	0.013 µM
CC#Cc1ccc2c(-c3c(O)cc(C(F)(F)F)cc3F)nnc(N[C@H]3C[C@@](C)(O)C3)c2c1 [Compound 066, 3-fluoro-2-(4-(((1S,3S)-3-hydroxy-3-methylcyclobutyl)amino)-6-(prop-1-yn-1-yl)phthalazin-1-yl)-5-(trifluoromethyl)phenol]	0.02 µM
